Data reported in PMC5130005, “Indolin-2-one compounds targeting thioredoxin reductase as potential anticancer drug leads” (Oncotarget, 2016).

Assays:
recombinant rat TrxR [1] = target: T1, recombinant rat TrxR (Rattus norvegicus, UniProt O89049); assay: reversibility of TrxR inhibition (desalting, DTNB reduction assay); assay type: biochemical; settings: 20 μM, 30 min, then desalting; activity followed 2 h post-desalting
T1 construct: made in house
T1 sequence (O89049 1-499): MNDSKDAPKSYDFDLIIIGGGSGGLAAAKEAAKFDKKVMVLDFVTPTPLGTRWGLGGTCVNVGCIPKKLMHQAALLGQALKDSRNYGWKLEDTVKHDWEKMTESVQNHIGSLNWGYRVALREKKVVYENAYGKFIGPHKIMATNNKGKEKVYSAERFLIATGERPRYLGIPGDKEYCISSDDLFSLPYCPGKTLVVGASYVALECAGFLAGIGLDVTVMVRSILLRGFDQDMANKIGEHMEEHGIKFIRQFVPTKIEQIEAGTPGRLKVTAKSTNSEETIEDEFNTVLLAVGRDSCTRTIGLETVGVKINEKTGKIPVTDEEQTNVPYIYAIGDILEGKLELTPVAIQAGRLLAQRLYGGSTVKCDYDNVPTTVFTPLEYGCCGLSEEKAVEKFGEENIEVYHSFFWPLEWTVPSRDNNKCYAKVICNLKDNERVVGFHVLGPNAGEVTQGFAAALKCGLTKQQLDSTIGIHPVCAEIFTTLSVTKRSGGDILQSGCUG

HCT 116 cells [2] = assay: total cellular thiols; assay type: cell-based, human; settings: 20-50 μM
recombinant rat TrxR [3] = target: T1, recombinant rat TrxR; assay: juglone reduction versus DTNB reduction by recombinant rat TrxR; assay type: biochemical; settings: 15 min incubation, 15 nM TrxR, 250 μM NADPH, 1-100 μM
Protocol: The assay, designed to determine the ability of mammalian TrxR to reduce juglone at the N-terminal active center, was performed as described previously. Briefly, 2 μl of diluted DMSO stocks of compounds 4 and 5 (final concentrations 1-100 μM) were incubated in 198 μl of 15 nM recombinant rat TrxR, 250 μM NADPH and 0.1 mg/ml BSA in TE buffer at room temperature in 96-well plates for 15 min. 100 mM stock solution of juglone in DMSO was prepared fresh for each experiment and diluted in TE buffer to a 300 μM working solution. The incubation was terminated by the addition of 100 μl of 300 μM juglone solution (final concentration 100 μM), and NADPH consumption was monitored at 340 nm for 5 min using the VersaMax microplate reader. The linear decrease in NADPH absorbance was used for calculating juglone reduction activity. The results were expressed as % of TrxR juglone reduction activity of drug-treated sample over that of DMSO-treated sample.
The experiments were performed at the same time with a corresponding DTNB reduction assay as described above with modifications so as to keep the experimental parameters and conditions similar to those in the juglone reduction assay. […] Following 15 min incubation with compound 4 or 5, 50 μl of 8.75 μM DTNB solution (final concentration 1.75 μM) was added to each well and DTNB reduction was measured at 412 nm for 2 min.

[4] = cell viability, MRC-5 normal lung fibroblasts; assay type: cell-based; settings: MRC-5 human normal lung fibroblasts, read-out: LC50, MRC-5 cells
HCT 116 cells [5] = assay: apoptosis induction by Western blot of cleaved caspase 3 and PARP; assay type: cell-based, human; settings: 10 h
Protocol: Cells were seeded onto 100 mm or 60 mm culture plates and upon reaching ~70% confluency, they were subjected to drug treatment for indicated durations. Pellets of compound-treated or DMSO control cells comprising both attached and floating cells were collected and lysed in lysis buffer (25 mM Tris-HCl pH 7.5, 100 mM NaCl, 2.5 mM EDTA, 2.5 mM EGTA, 20 mM NaF, 1 mM Na3VO4, 20 mM sodium β-glycerophosphate, 10 mM sodium pyrophosphate, 0.5% Triton X-100) with freshly added protease inhibitor cocktail (Roche Diagnostics). Prior to being used in Western blot analysis and/or cellular TrxR, GR, Trx and GPx activity determination, lysates were precleared by centrifugation and protein concentrations were determined using a modified Bradford assay (Bio-Rad Laboratories) as described in the manufacturer's manual. This procedure for collecting whole cell lysate was used for all experiments except for the Trx-redox state determination experiment. Equal amounts of protein (50 μg) in each lysate sample were separated by SDS-PAGE, followed by electroblotting onto nitrocellulose membranes. Electroblotted proteins on membranes were probed with a primary antibody and subsequently by a secondary antibody conjugated to HRP.

Trx in HCT 116 cells = assay: Trx redox state in cells (IAA alkylation, native PAGE); assay type: cell-based, human; settings: 40 μM; 4, 8 and 14 h
Protocol: The redox state of cellular Trx was assessed as previously described. HCT 116 cells were seeded in 60 mm plates and allowed to grow to 70% confluency. Compounds 4 or 5 were then added to the cells for 4, 8 or 14 h. Lysates were collected in lysis buffer (50 mM Tris-HCl pH 8.3, 2 mM EDTA, 6 M guanidine HCl, 0.5% Triton-X, 50 mM IAA). The lysates were incubated in the dark for 30 min at room temperature, sonicated briefly, and finally passed through a MicroSpin G-25 column (GE Healthcare) to remove guanidine and unreacted IAA. The desalted lysates were subjected to native PAGE, followed by transfer of separated proteins onto nitrocellulose membranes for Western blot analysis using anti-Trx antibody.

[6] = tested on: Trx-ASK1 complex in ASK1-overexpressing HCT 116 cells; assay: Trx-ASK1 interaction by Trx immunoprecipitation; assay type: cell-based, human
Protocol: HCT 116 cells were seeded in 60 mm plates and upon reaching 40% confluency, they were transfected with 1.5 μg of pCMV-SPORT6-ASK1 per plate. When the transfected cells reached ~70% confluency, they were treated with DMSO or compound 4 at indicated concentrations for 4 h and lysates were collected for immunoprecipitation set-up. For each lysate sample, a volume containing 1 mg of protein was mixed with 1.5 μg of anti-Trx antibody coupled to 20 μl of protein G-sepharose (GE Healthcare) and tumbled at 4°C for 2 h. The G-sepharose beads were washed three times in a cold washing buffer containing 20 mM Tris (pH 7.5), 0.5 M NaCl and 1 mM EGTA and once in a buffer containing 50 mM Tris (pH 7.5). The immunoprecipitated proteins were denatured in SDS sample buffer containing 5% β-mercaptoethanol and subjected to SDS-PAGE and Western blotting.

Structure (SMILES) | reversibility of TrxR inhibition (recombinant rat TrxR [1]) | total cellular thiols (HCT 116 cells [2]) | juglone reduction compared with DTNB reduction by inhibited TrxR (recombinant rat TrxR [3]) | CC50 at 72 h [4] [µM] | apoptosis induction (cleaved caspase 3 and PARP) (HCT 116 cells [5]) | Trx oxidation in HCT 116 cells (Trx in HCT 116 cells) | amount of ASK1 bound to Trx1 [6]
CCCCN1C(=O)/C(=C/C(C)=O)c2ccccc21 [Compound 4] | irreversible inhibitors of TrxR | depletion of total cellular thiols in a dose-dependent manner | juglone reduction was more preserved than DTNB reduction | 25.5 ± 2.7 | Dose-dependent induction of apoptosis | time-dependent oxidation of Trx | dose-dependent decrease
CC(=O)/C=C1/C(=O)N(Cc2ccccc2)c2ccccc21 [Compound 5] | irreversible inhibitors of TrxR | depletion of total cellular thiols in a dose-dependent manner | juglone reduction was more preserved than DTNB reduction | 22.7 ± 2.4 | Dose-dependent induction of apoptosis | time-dependent oxidation of Trx | –
